Results published in patent US7858786B2, “Pyrimidines and pyrazines useful as modulators of ion channels” (Vertex Pharmaceuticals Incoropated, priority 2005, dated 2010).

Target: T1, NaV1.8 (Homo sapiens, UniProt Q9Y5Y9)
Test: Activity against NaV 1.8 channel (NaV inhibition assay)
Format: cell-based
Conditions: not given
Procedure: Compounds of the invention are useful as antagonists of voltage-gated sodium ion channels. Antagonist properties of test compounds were assessed as follows. Cells expressing the NaV of interest were placed into microtiter plates. After an incubation period, the cells were stained with fluorescent dyes sensitive to the transmembrane potential. The test compounds were added to the microtiter plate. The cells were stimulated with either a chemical or electrical means to evoke a NaV dependent membrane potential change from unblocked channels, which was detected and measured with trans-membrane potential-sensitive dyes. Antagonists were detected as a decreased membrane potential response to the stimulus. The optical membrane potential assay utilized voltage-sensitive FRET sensors described by Gonzalez and Tsien (See, Gonzalez, J. E. and R. Y. Tsien (1995) “Voltage sensing by fluorescence resonance energy transfer in single cells” Biophys J 69(4):1272-80, and Gonzalez, J. E. and R. Y. Tsien (1997) “Improved indicators of cell membrane potential that use fluorescence resonance energy transfer” Chem Biol 4(4):269-77) in combination with instrumentation for measuring fluorescence changes such as the Voltage/Ion Probe Reader (VIPRO®) (See, Gonzalez, J. E., K. Oades, et al. (1999) “Cell-based assays and instrumentation for screening ion-channel targets” Drug Discov Today 4(9):431-439).
24 hours before the assay on VIPR, CHO cells endogenously expressing a NaV1.2 type voltage-gated NaV are seeded in 96-well poly-lysine coated plates at 60,000 cells per well. Other subtypes are performed in an analogous mode in a cell line expressing the NaV of interest.
The following is an example of how NaV1.3 inhibition activity is measured using the optical membrane potential method #2. Other subtypes are performed in an analogous mode in a cell line expressing the NaV of interest.
HEK293 cells stably expressing NaV1.3 are plated into 96-well microtiter plates. After an appropriate incubation period, the cells are stained with the voltage sensitive dyes CC2-DMPE/DiSBAC2(3) as follows.
Patch clamp electrophysiology was used to assess the efficacy and selectivity of sodium channel blockers in dorsal root ganglion neurons. Rat neurons were isolated from the dorsal root ganglions and maintained in culture for 2 to 10 days in the presence of NGF (50 ng/ml) (culture media consisted of NeurobasalA supplemented with B27, glutamine and antibiotics). Small diameter neurons (nociceptors, 8-12 μm in diameter) have been visually identified and probed with fine tip glass electrodes connected to an amplifier (Axon Instruments). The “voltage clamp” mode has been used to assess the compound's IC50 holding the cells at −60 mV. In addition, the “current clamp” mode has been employed to test the efficacy of the compounds in blocking action potential generation in response to current injections. The results of these experiments have contributed to the definition of the efficacy profile of the compounds.
TTX-resistant sodium currents were recorded from DRG somata using the whole-cell variation of the patch clamp technique. Recordings were made at room temperature (˜22° C.) with thick walled borosilicate glass electrodes (WPI; resistance 3-4 MΩ) using an Axopatch 200B amplifier (Axon Instruments). After establishing the whole-cell configuration, approximately 15 minutes were allowed for the pipette solution to equilibrate within the cell before beginning recording. Currents were lowpass filtered between 2-5 kHz and digitally sampled at 10 kHz. Series resistance was compensated 60-70% and was monitored continuously throughout the experiment. The liquid junction potential (−7 mV) between the intracellular pipette solution and the external recording solution was not accounted for in the data analysis. Test solutions were applied to the cells with a gravity driven fast perfusion system (SF-77; Warner Instruments). […]

T1 sequence (Q9Y5Y9 whole entry, looked up): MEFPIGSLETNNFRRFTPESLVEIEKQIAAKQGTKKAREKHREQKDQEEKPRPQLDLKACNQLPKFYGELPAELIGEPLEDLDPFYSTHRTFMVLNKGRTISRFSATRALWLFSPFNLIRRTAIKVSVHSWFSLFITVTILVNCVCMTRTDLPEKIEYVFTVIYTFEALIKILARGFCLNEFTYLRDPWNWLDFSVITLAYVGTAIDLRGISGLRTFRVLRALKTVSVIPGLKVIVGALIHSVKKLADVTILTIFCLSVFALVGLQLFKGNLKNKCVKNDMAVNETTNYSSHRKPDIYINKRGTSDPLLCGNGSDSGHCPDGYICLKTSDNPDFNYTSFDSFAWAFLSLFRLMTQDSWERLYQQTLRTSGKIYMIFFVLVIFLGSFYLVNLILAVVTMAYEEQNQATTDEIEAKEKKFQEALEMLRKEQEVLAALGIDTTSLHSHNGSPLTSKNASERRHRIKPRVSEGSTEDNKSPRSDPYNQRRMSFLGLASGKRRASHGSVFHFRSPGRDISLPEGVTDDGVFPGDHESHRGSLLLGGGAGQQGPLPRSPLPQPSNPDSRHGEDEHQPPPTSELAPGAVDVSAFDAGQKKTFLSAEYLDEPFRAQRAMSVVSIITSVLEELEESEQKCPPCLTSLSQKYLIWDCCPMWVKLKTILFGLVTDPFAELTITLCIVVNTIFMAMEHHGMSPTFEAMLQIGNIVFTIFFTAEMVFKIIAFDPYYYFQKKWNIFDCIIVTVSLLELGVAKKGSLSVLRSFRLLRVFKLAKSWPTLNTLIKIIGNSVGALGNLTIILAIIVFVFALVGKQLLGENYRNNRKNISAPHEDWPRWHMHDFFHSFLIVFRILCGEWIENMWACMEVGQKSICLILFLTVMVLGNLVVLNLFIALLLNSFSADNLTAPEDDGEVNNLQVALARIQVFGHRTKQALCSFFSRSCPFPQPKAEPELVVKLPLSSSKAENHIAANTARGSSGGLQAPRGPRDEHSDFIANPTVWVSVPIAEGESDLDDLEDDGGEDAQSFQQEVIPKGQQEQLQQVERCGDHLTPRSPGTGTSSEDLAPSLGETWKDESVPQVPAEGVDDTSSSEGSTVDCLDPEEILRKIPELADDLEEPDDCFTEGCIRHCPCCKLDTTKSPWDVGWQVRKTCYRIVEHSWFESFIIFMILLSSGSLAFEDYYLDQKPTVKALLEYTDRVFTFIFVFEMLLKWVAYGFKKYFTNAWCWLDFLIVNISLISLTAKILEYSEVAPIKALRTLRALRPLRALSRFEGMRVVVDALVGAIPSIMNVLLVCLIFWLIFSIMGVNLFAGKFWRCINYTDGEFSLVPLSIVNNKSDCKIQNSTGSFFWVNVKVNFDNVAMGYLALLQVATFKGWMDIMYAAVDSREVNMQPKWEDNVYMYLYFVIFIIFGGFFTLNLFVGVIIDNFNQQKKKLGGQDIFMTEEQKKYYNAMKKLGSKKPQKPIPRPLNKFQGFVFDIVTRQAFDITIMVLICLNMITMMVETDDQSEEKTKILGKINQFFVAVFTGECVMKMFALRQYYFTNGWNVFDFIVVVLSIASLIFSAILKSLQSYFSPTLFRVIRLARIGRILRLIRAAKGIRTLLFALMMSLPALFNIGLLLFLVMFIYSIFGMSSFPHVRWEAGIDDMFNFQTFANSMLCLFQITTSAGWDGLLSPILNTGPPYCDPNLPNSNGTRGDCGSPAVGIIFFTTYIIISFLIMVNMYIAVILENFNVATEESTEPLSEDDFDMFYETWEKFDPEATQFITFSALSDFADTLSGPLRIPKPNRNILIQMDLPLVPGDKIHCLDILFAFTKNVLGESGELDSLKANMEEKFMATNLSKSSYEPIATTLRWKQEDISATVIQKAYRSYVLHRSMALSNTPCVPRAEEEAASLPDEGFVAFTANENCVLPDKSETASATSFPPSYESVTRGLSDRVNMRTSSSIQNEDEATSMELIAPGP

Row | Compound | IC50 [µM]
1 | CC(C)C[C@@H](O)C(=O)N1CCN(c2ccnc(-c3ccccc3F)n2)CC1 [Compound 42, 1-[4-[2-(2-fluorophenyl)pyrimidin-4-yl]piperazin-1-yl]-2-hydroxy-4-methyl-pentan-1-one] | > 15
2 | CC(C)COC(=O)N1CCN(c2cncc(-c3ccccc3C(F)F)n2)CC1 [Compound 15, 4-[6-[2-(difluoromethyl)phenyl]pyrazin-2-yl]piperazine-1-carboxylic acid isobutyl ester] | 10 to 15
3 | CC(C)COC(=O)N1CCN(c2cc(-c3ccccc3O)ncn2)CC1 [Compound 20, 4-[6-(2-hydroxyphenyl)pyrimidin-4-yl]piperazine-1-carboxylic acid isobutyl ester] | 10 to 15
4 | CC(C)(C)OC(=O)NC1CCN(c2cncc(-c3ccccc3O)n2)CC1 [Compound 52, [1-[6-(2-hydroxyphenyl)pyrazin-2-yl]-4-piperidyl]aminoformic acid tert-butyl ester] | < 10
5 | COCCOC(=O)NC1CCN(c2cncc(-c3ccccc3C(F)F)n2)CC1 [Compound 19, [1-[6-[2-(difluoromethyl)phenyl]pyrazin-2-yl]-4-piperidyl]aminoformic acid 2-methoxyethyl ester] | < 10
6 | COCCOC(=O)N[C@H]1CCN(c2cncc(-c3ccccc3C(F)F)n2)C1 [Compound 11, [1-[6-[2-(difluoromethyl)phenyl]pyrazin-2-yl]pyrrolidin-3-yl]aminoformic acid 2-methoxyethyl ester] | > 15
7 | COCCOC(=O)NC1CCN(c2cncc(-c3ccccc3O)n2)CC1 [Compound 47, [1-[6-(2-hydroxyphenyl)pyrazin-2-yl]-4-piperidyl]aminoformic acid 2-methoxyethyl ester] | > 15
8 | CC(C)COC(=O)N1CCN(c2cncc(-c3ccccc3O)n2)CC1 [Compound 33, 4-[6-(2-hydroxyphenyl)pyrazin-2-yl]piperazine-1-carboxylic acid isobutyl ester] | < 10
9 | CC(C)COC(=O)NC1CCN(c2nccc(-c3ccccc3C(F)F)n2)CC1 [Compound 31, [1-[4-[2-(difluoromethyl)phenyl]pyrimidin-2-yl]-4-piperidyl]aminoformic acid isobutyl ester] | < 10
10 | CC(C)COC(=O)N1CCN(c2ccnc(-c3ccccc3C(F)F)n2)CC1 [Compound 32, 4-[2-[2-(difluoromethyl)phenyl]pyrimidin-4-yl]piperazine-1-carboxylic acid isobutyl ester] | > 15
11 | CC(C)C(=O)N[C@@H]1CCN(c2cncc(-c3ccccc3F)n2)C1 [Compound 7, N-[1-[6-(2-fluorophenyl)pyrazin-2-yl]pyrrolidin-3-yl]-2-methyl-propanamide] | > 15
12 | O=C(NC1CCN(c2ccnc(-c3ccccc3O)n2)CC1)[C@H]1CCCO1 [Compound 29, N-[1-[2-(2-hydroxyphenyl)pyrimidin-4-yl]-4-piperidyl]tetrahydrofuran-2-carboxamide] | > 15
13 | CC(C)(C)OC(=O)N[C@@H]1CCN(c2cncc(-c3ccccc3C(F)F)n2)C1 [Compound 43, [1-[6-[2-(difluoromethyl)phenyl]pyrazin-2-yl]pyrrolidin-3-yl]aminoformic acid tert-butyl ester] | 10 to 15
14 | CC(C)COC(=O)N1CCN(c2cc(-c3ccccc3C(F)F)ncn2)CC1 [Compound 4, 4-[6-[2-(difluoromethyl)phenyl]pyrimidin-4-yl]piperazine-1-carboxylic acid isobutyl ester] | > 15
15 | COCCOC(=O)N[C@@H]1CCN(c2cncc(-c3ccccc3F)n2)C1 [Compound 27, [1-[6-(2-fluorophenyl)pyrazin-2-yl]pyrrolidin-3-yl]aminoformic acid 2-methoxyethyl ester] | > 15
16 | CC(C)COC(=O)N1CCN(c2nccc(-c3ccccc3O)n2)CC1 [Compound 25, 4-[4-(2-hydroxyphenyl)pyrimidin-2-yl]piperazine-1-carboxylic acid isobutyl ester] | < 10
17 | CC(C)COC(=O)N[C@H]1CCN(c2cncc(-c3ccccc3C(F)F)n2)C1 [Compound 36, [1-[6-[2-(difluoromethyl)phenyl]pyrazin-2-yl]pyrrolidin-3-yl]aminoformic acid isobutyl ester] | < 10

System: neuropathic pain
Test: not given
Conditions: modest efficacy; cited from earlier work

Row | Compound | patients in which it works [%]
18 | NCC1(CC(=O)O)CCCCC1 [Gabapentin] | 60

Target: T1, NaV1.8
Test: not given
Conditions: read-out: TTX IC50; cited from earlier work

Row | Compound | IC50 [µM]
19 | NC1=N[C@H](O)[C@H]2[C@H]3O[C@]4(O)O[C@@H]([C@@H](O)[C@@]2(N1)[C@@H]4O)[C@]3(O)CO [TTX, tetrodotoxin] | > 50
